Data from patent publication US11376337B2, “Expression of neuropeptides” (California Institute of Technology, priority 2017, dated 2022).
“Also recorded” adds a separate entry of the source.

What was measured:
[1] = molecular target: T1, Nk3R (Mus musculus, UniProt P47937); experiment: Tone fear conditioning test (freezing), osanetant; format: in vivo, mice; parameters: endogenous in cells; host or cells: living mice (wild-type C57Bl6/N males, Charles River); systemic i.p. dosing or microinfusion into dBNSTa, DMH, CeA; settings: for acute (and thereby persistent) freezing to conditioned threatening stimulus (tone): osanetant injection into CeA; for SIS-induced persistent freezing to conditioned tone: osanetant microinfusion into dBNSTa, 375 ng per site, 20 min before test
T1 sequence (P47937 1-452): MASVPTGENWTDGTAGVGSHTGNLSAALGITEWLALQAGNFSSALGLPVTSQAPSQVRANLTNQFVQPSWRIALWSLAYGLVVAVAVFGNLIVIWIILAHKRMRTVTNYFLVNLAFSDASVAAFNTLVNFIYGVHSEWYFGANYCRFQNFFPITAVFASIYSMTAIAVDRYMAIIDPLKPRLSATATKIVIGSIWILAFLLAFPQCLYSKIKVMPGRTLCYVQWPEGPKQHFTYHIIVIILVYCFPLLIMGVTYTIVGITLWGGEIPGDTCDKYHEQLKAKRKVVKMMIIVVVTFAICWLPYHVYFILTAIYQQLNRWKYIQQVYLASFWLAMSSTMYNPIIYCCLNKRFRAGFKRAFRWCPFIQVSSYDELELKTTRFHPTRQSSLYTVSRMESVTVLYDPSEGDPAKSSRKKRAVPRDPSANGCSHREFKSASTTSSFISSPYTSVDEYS

[2] = molecular target: T1, Nk3R; experiment: Return to housing with pre-isolation cagemates after SIS, osanetant; format: in vivo, mice; parameters: endogenous in cells; host or cells: living mice (wild-type C57Bl6/N males, Charles River); systemic i.p. dosing or microinfusion into dBNSTa, DMH, CeA; settings: osanetant during SIS; data not shown
[3] = molecular target: T1, Nk3R; experiment: Resident intruder assay (aggression), osanetant; settings: for SIS-induced aggression: osanetant microinfusion into DMH
[4] = molecular target: T2, Nk3R (Homo sapiens, UniProt P29371); settings: trials for schizophrenia, bipolar and panic disorder; cited from earlier work
T2 sequence (P29371 1-465): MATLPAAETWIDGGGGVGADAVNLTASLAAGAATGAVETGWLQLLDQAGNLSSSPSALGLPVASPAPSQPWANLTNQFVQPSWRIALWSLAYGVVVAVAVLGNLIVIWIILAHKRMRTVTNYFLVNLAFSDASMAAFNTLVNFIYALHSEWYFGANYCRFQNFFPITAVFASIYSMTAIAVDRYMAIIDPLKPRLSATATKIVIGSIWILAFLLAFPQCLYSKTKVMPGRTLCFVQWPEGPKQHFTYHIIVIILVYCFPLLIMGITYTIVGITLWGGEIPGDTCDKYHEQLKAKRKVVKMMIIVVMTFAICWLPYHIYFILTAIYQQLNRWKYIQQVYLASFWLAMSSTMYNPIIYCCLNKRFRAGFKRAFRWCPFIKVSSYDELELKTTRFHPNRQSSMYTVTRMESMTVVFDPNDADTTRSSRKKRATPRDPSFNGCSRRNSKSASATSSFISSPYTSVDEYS

[5] = literature statement; cited from earlier work
[6] = molecular target: T1, Nk3R; experiment: Acoustic startle response, osanetant; settings: SIS mice; acute systemic osanetant
[7] = molecular target: T1, Nk3R; experiment: Social interaction assay, osanetant; settings: SIS mice; acute systemic osanetant
[8] = molecular target: T1, Nk3R; experiment: Looming disk assay (freezing), osanetant; settings: for acute (and thereby persistent) freezing to innate threatening stimulus (looming disk): osanetant injection into CeA
[9] = molecular target: T1, Nk3R; experiment: Tail rattles during looming disk assay, osanetant; settings: SIS mice; acute systemic osanetant
[10] = molecular target: T1, Nk3R; experiment: Shock reactivity (footshock), osanetant; format: in vivo, mice; parameters: endogenous in cells; host or cells: living mice (wild-type C57Bl6/N males, Charles River); systemic i.p. dosing or microinfusion into dBNSTa, DMH, CeA
[11] = SIS mice, osanetant 5 mg/kg i.p. 20 min prior to assay
[12] = SIS mice, osanetant microinfusion into DMH
[13] = osanetant 5 mg/kg i.p. 20 min prior to assay, during stimulus
[14] = osanetant daily during two-week SIS, tested off-drug
[15] = SIS mice, osanetant injection into CeA
[16] = SIS mice, osanetant microinfusion into dBNSTa

SIS-induced persistent (post) freezing to fear-conditioned tone [1, 11]: blocked; also recorded: attenuated | acute (and thereby persistent) freezing to conditioned threatening stimulus (tone) ([1]; SIS mice): reduced | acute (and thereby persistent) freezing to conditioned threatening stimulus (tone) ([1]; SIS mice, listed as Osanetant): selectively blocked | persistent responses to conditioned tone [1, 12]: had no effect | SIS-induced persistent freezing to conditioned tone ([1]; SIS mice): selectively inhibited | SIS-induced persistent freezing to conditioned tone ([1]; SIS mice, listed as Osanetant): selectively blocked | freezing during presentation of fear-conditioned tone [1, 13]: no significant differences | persistent freezing to fear conditioned tone [1, 14]: prevented | fighting after return to housing with pre-isolation cagemates [2]: without any subsequent fighting observed | aggression promoted by sexual experience ([3]; 2 weeks co-habitation with a female, no isolation, systemic osanetant): had no effect | SIS-enhanced aggression [3, 11]: blocked; also recorded: strongly reduced | aggression [3, 15]: unaffected | SIS-induced aggression ([3]; SIS mice): abolished | SIS-induced aggression ([3]; SIS mice, listed as Osanetant): selectively blocked | aggression [3, 16]: no effect | SIS-enhanced aggression [3, 14]: prevented | SIS-enhanced responding in acoustic startle assay [6]: blocked; also recorded: attenuated | SIS-induced decreased social interaction (time in social zone) [7]: blocked; also recorded: attenuated | SIS-induced persistent (post) freezing to looming disk [8, 11]: blocked; also recorded: attenuated | acute (and thereby persistent) freezing to innate threatening stimulus (looming disk) ([8]; SIS mice): reduced | acute (and thereby persistent) freezing to innate threatening stimulus (looming disk) ([8]; SIS mice, listed as Osanetant): selectively blocked | persistent responses to looming stimulus [8, 12]: had no effect | SIS-induced persistent freezing to looming disk ([8]; SIS mice, osanetant microinfusion into dBNSTa, 375 ng per site, 20 min before test): selectively inhibited | SIS-induced persistent freezing to looming disk ([8]; SIS mice, osanetant microinfusion into dBNSTa, 375 ng per site, 20 min before test, listed as Osanetant): selectively blocked | freezing during presentation of looming disk [8, 13]: no significant differences | persistent freezing to looming disk [8, 14]: prevented | SIS-induced increased tail rattling [9]: blocked; also recorded: attenuated | SIS-induced increased shock reactivity [10, 11]: blocked | reactivity to footshock (SIS-enhanced) [10, 15]: reduced; also recorded: blocked | responses to footshock [10, 12]: had no effect | shock reactivity [10, 16]: no effect
Compound: CC(=O)N(C)C1(c2ccccc2)CCN(CCC[C@]2(c3ccc(Cl)c(Cl)c3)CCCN(C(=O)c3ccccc3)C2)CC1 [osanetant]
efficacy in clinical trials [4]: lack of efficacy | tolerability in clinical trials [4]: well tolerated | crossing of the blood-brain barrier [5]: crosses the blood-brain barrier | SIS-induced persistent freezing to looming disk ([8]; SIS mice, osanetant microinfusion into ACC): failed to yield significant effects; also recorded: No significant effects | SIS-induced persistent freezing to looming disk ([8]; SIS mice, osanetant microinfusion into striatum): failed to yield significant effects; also recorded: No significant effects | SIS-induced increase in shock reactivity [10, 14]: a trend to protection; also recorded: reduced, but not significantly
